Laboratory results as given in ChEMBL document CHEMBL5154702, “Synthesis and biological evaluation of aminobenzamides containing purine moiety as class I histone deacetylases inhibitors” (Bioorg Med Chem, 2022).
Calls of active or inactive are those of the source. No cut-off for these calls is given here.

How the values were obtained:
[1] = biological target: Histone deacetylase 3/Nuclear receptor corepressor 2 (HDAC3/NCoR2) (Homo sapiens, UniProt O15379); assay: biochemical; set-up: species or system Sf9
Chain of Histone deacetylase 3/Nuclear receptor corepressor 2 (HDAC3/NCoR2) (O15379 whole entry): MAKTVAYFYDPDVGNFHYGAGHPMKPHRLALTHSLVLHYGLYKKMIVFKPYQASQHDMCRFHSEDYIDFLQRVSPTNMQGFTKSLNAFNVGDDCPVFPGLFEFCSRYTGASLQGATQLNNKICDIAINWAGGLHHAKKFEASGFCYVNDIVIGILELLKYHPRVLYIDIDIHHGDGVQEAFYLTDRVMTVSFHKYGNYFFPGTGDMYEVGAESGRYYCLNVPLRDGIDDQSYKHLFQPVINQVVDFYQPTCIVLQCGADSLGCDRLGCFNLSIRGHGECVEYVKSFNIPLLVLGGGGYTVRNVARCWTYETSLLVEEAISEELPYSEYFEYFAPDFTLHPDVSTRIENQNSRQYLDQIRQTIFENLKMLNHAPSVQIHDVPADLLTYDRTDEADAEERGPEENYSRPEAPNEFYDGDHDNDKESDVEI
Chain of Histone deacetylase 3/Nuclear receptor corepressor 2 (HDAC3/NCoR2) (Q9Y618 whole entry, further chain): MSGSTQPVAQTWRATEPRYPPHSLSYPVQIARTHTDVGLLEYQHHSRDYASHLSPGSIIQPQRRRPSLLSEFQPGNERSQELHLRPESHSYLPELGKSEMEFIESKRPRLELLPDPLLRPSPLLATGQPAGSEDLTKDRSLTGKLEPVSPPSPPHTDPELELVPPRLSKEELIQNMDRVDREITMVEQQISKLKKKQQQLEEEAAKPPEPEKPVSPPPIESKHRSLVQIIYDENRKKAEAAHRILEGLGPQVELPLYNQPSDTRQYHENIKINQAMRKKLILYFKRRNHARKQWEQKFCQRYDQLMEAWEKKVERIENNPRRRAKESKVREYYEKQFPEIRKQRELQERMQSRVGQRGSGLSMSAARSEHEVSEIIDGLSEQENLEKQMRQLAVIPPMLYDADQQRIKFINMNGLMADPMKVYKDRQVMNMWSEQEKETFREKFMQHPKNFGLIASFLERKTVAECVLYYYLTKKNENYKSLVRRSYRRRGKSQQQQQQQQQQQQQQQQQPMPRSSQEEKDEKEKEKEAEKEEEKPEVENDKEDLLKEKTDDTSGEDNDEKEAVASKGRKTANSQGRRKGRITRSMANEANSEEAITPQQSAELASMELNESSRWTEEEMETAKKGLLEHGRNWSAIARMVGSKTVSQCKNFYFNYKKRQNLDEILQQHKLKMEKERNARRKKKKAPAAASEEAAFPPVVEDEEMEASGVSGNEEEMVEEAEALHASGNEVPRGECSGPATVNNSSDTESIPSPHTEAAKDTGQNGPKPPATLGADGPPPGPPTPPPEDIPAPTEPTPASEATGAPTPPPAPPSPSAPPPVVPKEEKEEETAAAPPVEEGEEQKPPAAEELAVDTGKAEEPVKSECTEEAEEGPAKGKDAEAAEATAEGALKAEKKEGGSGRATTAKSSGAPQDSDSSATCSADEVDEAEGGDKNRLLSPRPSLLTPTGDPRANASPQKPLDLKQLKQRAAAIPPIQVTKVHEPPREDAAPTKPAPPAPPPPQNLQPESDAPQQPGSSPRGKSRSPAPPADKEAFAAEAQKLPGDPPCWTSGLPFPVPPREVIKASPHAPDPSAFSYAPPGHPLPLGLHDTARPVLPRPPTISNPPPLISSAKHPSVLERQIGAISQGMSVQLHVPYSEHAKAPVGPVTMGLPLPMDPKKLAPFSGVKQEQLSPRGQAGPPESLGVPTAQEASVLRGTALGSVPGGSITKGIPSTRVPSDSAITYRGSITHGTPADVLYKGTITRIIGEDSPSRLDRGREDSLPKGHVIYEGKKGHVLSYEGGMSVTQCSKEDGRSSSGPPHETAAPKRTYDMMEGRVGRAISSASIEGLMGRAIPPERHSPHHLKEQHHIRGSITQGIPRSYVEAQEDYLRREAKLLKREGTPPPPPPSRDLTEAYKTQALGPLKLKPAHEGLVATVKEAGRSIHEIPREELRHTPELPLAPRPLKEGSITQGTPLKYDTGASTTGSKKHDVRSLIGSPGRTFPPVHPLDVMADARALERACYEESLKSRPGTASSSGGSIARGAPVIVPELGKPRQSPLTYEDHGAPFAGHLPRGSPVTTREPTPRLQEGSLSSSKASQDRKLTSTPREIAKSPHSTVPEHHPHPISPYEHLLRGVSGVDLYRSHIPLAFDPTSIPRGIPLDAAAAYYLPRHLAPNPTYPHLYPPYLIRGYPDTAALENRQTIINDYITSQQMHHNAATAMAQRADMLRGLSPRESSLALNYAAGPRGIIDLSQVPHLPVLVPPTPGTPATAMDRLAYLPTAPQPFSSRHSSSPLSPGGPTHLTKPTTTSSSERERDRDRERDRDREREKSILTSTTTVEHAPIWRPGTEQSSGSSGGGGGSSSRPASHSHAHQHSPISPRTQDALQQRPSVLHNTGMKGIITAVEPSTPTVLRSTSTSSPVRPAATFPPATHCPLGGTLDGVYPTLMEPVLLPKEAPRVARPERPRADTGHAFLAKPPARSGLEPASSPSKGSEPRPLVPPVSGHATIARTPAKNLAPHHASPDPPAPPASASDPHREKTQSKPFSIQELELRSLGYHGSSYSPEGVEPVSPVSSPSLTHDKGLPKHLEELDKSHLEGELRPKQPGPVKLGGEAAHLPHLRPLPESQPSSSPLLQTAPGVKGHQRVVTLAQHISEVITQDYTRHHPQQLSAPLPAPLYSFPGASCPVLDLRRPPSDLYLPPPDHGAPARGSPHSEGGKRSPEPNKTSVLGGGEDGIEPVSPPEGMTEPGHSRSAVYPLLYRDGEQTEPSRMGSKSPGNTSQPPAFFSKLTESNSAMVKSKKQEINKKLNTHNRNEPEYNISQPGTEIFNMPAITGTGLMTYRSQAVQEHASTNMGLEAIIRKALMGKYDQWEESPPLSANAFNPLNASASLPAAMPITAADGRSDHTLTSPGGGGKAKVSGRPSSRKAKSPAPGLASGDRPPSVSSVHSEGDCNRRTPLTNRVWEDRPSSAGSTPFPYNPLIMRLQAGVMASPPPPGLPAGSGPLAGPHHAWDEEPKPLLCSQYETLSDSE

MDA-MB-231 [2] = assay: Antiproliferative activity against human MDA-MB-231 cells measured after 48 hrs by MTT assay; type: functional, cell-based; details: MDA-MB-231, 48 h
MDA-MB-231 [3] = assay: Potency index, ratio of SAHA IC50 to test compound IC50 for antiproliferative activity against human MDA-MB-231 cells; type: functional
HCT-116 [4] = assay: Induction of cell morphological changes in human HCT-116 cells assessed as nuclear fragmentation at 0.5 to 5 uM measured after 24 hrs by Hoechst 33258 staining based fluorescence microscopy; type: functional; details: dose 0.5-5 µM
HCT-116 [5] = assay: Induction of cell morphological changes in human HCT-116 cells assessed as chromatin condensation at 0.5 to 5 uM measured after 24 hrs by Hoechst 33258 staining based fluorescence microscopy; type: functional; details: dose 0.5-5 µM
HCT-116 [6] = assay: Induction of apoptosis in human HCT-116 cells assessed as early apoptotic cells at 0.5 uM measured after 24 hrs by Annexin V-FITC/propidium iodide staining based flow cytometry (reference value: 1.87%); type: functional
HCT-116 [7] = assay: Induction of apoptosis in human HCT-116 cells assessed as late apoptotic cells at 0.5 uM measured after 24 hrs by Annexin V-FITC/propidium iodide staining based flow cytometry (reference value: 3.43%); type: functional
HCT-116 [8] = assay: Induction of apoptosis in human HCT-116 cells assessed as late apoptotic cells at 1 uM measured after 24 hrs by Annexin V-FITC/propidium iodide staining based flow cytometry (reference value: 3.43%); type: functional
HCT-116 [9] = assay: Induction of apoptosis in human HCT-116 cells assessed as necrotic cells at 1 uM measured after 24 hrs by Annexin V-FITC/propidium iodide staining based flow cytometry (reference value: 7.39%); type: functional
HCT-116 [10] = assay: Induction of apoptosis in human HCT-116 cells assessed as early apoptotic cells at 5 uM measured after 24 hrs by Annexin V-FITC/propidium iodide staining based flow cytometry (reference value: 1.87%); type: functional
HCT-116 [11] = assay: Cell cycle arrest in human HCT-116 cells assessed as accumulation of cells at G0/G1 phase at 1 uM measured after 24 hrs by propidium iodide staining based flow cytometry (reference value: 58.05%); type: functional
HCT-116 [12] = assay: Cell cycle arrest in human HCT-116 cells assessed as accumulation of cells at G0/G1 phase at 5 uM measured after 24 hrs by propidium iodide staining based flow cytometry (reference value: 58.05%); type: functional
HCT-116 [13] = assay: Cell cycle arrest in human HCT-116 cells assessed as accumulation of cells at G2/M phase at 10 uM measured after 24 hrs by propidium iodide staining based flow cytometry (reference value: 22.74%); type: functional
HCT-116 [14] = assay: Cell cycle arrest in human HCT-116 cells assessed as down regulation of cyclin D1 expression measured after 24 hrs by Western blot analysis; type: functional, cell-based; details: dose 0.1-10 µM, DDE = dose-dependent effect
[15] = Half life in dog liver microsomes at 13.8 uM by HPLC analysis; type: ADME, Canis lupus familiaris, Microsome
[16] = Half life in human liver microsomes at 13.8 uM by HPLC analysis; type: ADME, Microsome

- IC50 [1]: 1240 nM
- IC50 (MDA-MB-231 [2]): 380 nM
- half-life at 13.8 µM [15]: 3.73 h
- half-life at 13.8 µM [16]: 4.62 h
SMILES: CCCCNc1nc(Cl)nc2c1ncn2Cc1ccc(C(=O)Nc2ccccc2N)cc1
- Ratio IC50 (MDA-MB-231 [3]): 4
- Activity (HCT-116 [4]): Active
- Activity (HCT-116 [5]): Active
- Activity (HCT-116 [6]): 33.1%
- Activity (HCT-116 [7]): 2.12%
- Activity (HCT-116 [8]): 8.94%
- Activity (HCT-116 [9]): 1.2%
- Activity (HCT-116 [10]): 70.6%
- Activity (HCT-116 [11]): 66.71%
- Activity (HCT-116 [12]): 67.96%
- Activity (HCT-116 [13]): 11.15%
- Activity (HCT-116 [14]): Dde
